From patent US20260306599A1, “TIMP3-DERIVED TEIPP NEOANTIGENS AND USES THEREOF” (priority 2023, published 2026)
Residues, ends and D or L forms follow the SMILES beside them. No end group written: not given here.

Assays:
[1] = test system: p124-specific CD8 T cells; assay: Cross-presentation of synthetic long peptides by monocyte-derived dendritic cells to p124-specific CD8 T cells; format: cell-based, human; conditions: moDC loaded with 10 μM SLP; for T cell activation by cross-presented synthetic long peptide (wild type epitope): FIG. 7; for cross-presentation of synthetic long peptide (V-variant epitope): FIG. 8
Protocol: HLA-A*02:01 positive PBMCs were isolated from buffy-coats from consented donors (Sanquin bloodbank, Amsterdam), using a gradient ficoll layer. PBMCs were incubated with anti-CD14 magnetic beads for 20 min at 4° C. and the CD14 positive monocytes were isolated using magnetic separation columns (miltenyi). CD14+ monocyte were cultured in RPMI medium supplemented with 10% FCS, GM-CSF (800 units/ml), and IL-4 (500 units/ml) for 6 days to generate immature monocyte-derived dendritic cells. On day 6, the immature moDCs were incubated with synthetic long peptide (10 μM, Genscript) for 2h, followed by overnight incubation with LPS (20 ng/ml). Matured and loaded moDCs (30,000 cells) were washed and co-cultured with previously established tetramer positive T cells (50,000 cells) for 16 h. Direct presentation of synthetic long peptides was tested by continuous incubation with TIMP3-specific CD8 T cell bulk for 16 h in the absence of moDC. Cytokine release by T cells was then measured in supernatants by ELISA.
The synthetic long peptide (SLP) platform is highly immunogenic and successfully applied in therapeutic SLP vaccination for HPV-induced cancers (Kenter et al. 2009; van Poelgeest et al. 2016). Therefore, the inventors examined the efficiency of cross-presentation of long versions of the TIMP3-derived signal peptide SLGDWGAEA (SEQ ID NO: 2) in dendritic cells, using natural flanking amino acids extending the amino-terminus, the carboxy-terminus, or both ends (Table 3). Monocyte-derived dendritic cells (moDC) were incubated with these three SLPs (P124 long 1-3; SEQ ID NOs: 22-24), then matured, and used as targets for the p124-specific CD8 T cell culture to assess correct processing and HLA-A2 presentation of the minimal TEIPP epitope. Despite the fact that the c-terminus was an alanine, the TIMP3-derived signal peptide SLGDWGAEA (SEQ ID NO: 2) was cross-presented by DCs from a longer peptide to p124-specific CD8 T cells (FIG. 7).
Therefore, the cross-presentation of the V-variant was evaluated as synthetic long peptide extended with natural flanking amino acids (Table 3). After uptake and processing of the five different variants (P124 long V1-3, V1-4, V1-6, V2 and V3; SEQ ID NOs: 25, 110, 111, 26 and 27), moDCs were co-cultured with the p124-specific T cell cultures and cytokine production was measured (FIG. 8). […] The lack of recognition of DCs not loaded with peptide reiterates that moDCs, despite the high expression of TIMP3 (FIG. 4), are not recognized.

TAP-negative tumor cells = assay: Preferential recognition of TAP-negative over TAP-positive tumor cells by peptide-stimulated T cell cultures (TEIPP screen); format: cell-based, human; conditions: TAP-negative vs TAP-positive tumor cells
Protocol: TCR-transduced or bulk-cultured TEIPP T cells were tested for their ability to selectively recognize the indicated TEIPP epitope presented on TAP impaired tumors by co-culturing them for 18 hours with wild-type (wt), TAP-KO and/or TAP/TIMP3-KO tumor cells at a 5-to-1 target-to-T cell ratio, after which supernatants were harvested and analyzed for cytokine production by GM-CSF, CCL4 and/or IFNg ELISA. Unstimulated and peptide-stimulated T cells were used as negative and positive controls. For some experiments, also endogenous TEIPP antigen-expressing healthy cells such as Epstein-Barr virus (EBV) transformed B-cells, monocytes or monocyte-derived dendritic cells were included as additional controls. Test were performed in triplo in 96 well round bottom plates at 1:1 target to effector ratio.
36 peptides (designated 101 to 136) were selected for their capacity to activate CD8+ T cells present in peripheral blood mononuclear cells (PBMC) of maximal 5 healthy donors, following the protocol described earlier (Marnjt et al., 2018). […] After an in vitro expansion and enrichment of the responding T cell cultures, 18 of the 21 cases could be tested for their capacity to preferentially recognize TAP-negative tumor cells over TAP-positive tumor cells. […] These cultures were stimulated with peptide 105, 113, or 124. […]

[2] = test system: SLGDWGAEA-specific T cells; assay: Interferon-gamma production of SLGDWGAEA-specific T cells stimulated with variant peptides pulsed on HLA-A*0201 positive EBV transformed B-cells; format: cell-based, human; conditions: for Recognition (IC50): concentration of peptide for half maximal interferon-gamma production of SLGDWGAEA-specific T cells; for response of peptide 124-specific CD8+ T cell culture to variant peptide: short minimal peptides exogenously pulsed on HLA-A*0201 positive EBV transformed B-cells
From the text: The inventors investigated if exchanges into another amino acids would result in a more efficiently processed epitope. First, they examined whether these substitutions would interfere with T cell receptor interaction. The inventors exogenously pulsed the short minimal peptides of Table 4 with the C-terminal valine (V), leucine (L), isoleucine (I), or methionine (M) on HLA-A*0201 positive EBV transformed B-cells and measured the activation of the peptide 124-specific CD8+ T cell culture.

[3] = test system: CD8+ T cells present in peripheral blood mononuclear cells (PBMC); assay: In vitro expansion of peptide multimer-positive CD8+ T cells from PBMC of healthy donors; format: cell-based, human
Protocol: Buffy coats from healthy donors were obtained from Sanquin (Sanquin blood facility). Informed consent was given in writing by all participants. PBMCs were isolated using a ficoll gradient (density 1.077 g/ml). Approximately 500×10^6 PBMCs were incubated with PE-labeled pHLA-A*02:01 tetramers (Flex-T™ HLA-A*02:01 Monomer UVX van Biolegend) for 30 min at RT. Anti-PE magnetic beads (MACS) were used to pull out pHLA-A*02:01 tetramer-positive cells over a MACS LS column as instructed by the manufacturer (Miltenyi Biotech). T cells were cultured in complete IMDM containing 10% human serum (Sanquin blood facility) and 100 U/ml IL-2 (Proleukine; Novartis). Bulk T cells were stimulated every 2 weeks with a mixture of T cells (106), 1 μg/ml synthetic peptide (SLGDWGAEA (SEQ ID NO: 2) (TIMP3)), irradiated PBMCs (10 cells, 50 Gray), and EBV-JY (10W cells, 75 Gray) in complete T cell culture medium supplemented with 100 U/ml IL-2 in 24-well plates (Costar). Culture medium was replenished every 2-3 d with fresh complete T cell medium.
36 peptides (designated 101 to 136) were selected for their capacity to activate CD8+ T cells present in peripheral blood mononuclear cells (PBMC) of maximal 5 healthy donors, following the protocol described earlier (Marnjt et al., 2018). […]

[4] = test system: SLGDWGAEA-specific T cell cultures; assay: Tetramer staining of peptide 124-specific T cell cultures; format: binding, human; conditions: three T cell cultures, donors 2028, 4409, 2752
From the text: T cell cultures of donors 2028, 4409 and 2752 were stimulated with the peptide SLGDWGAEA (SEQ ID NO:2) and analyzed via flow cytometry for the percentage of CD8+ T cells and the percentage therein of CD8+ T cells that stained positive with the HLA-A*02:01 tetramer presenting peptide SLGDWGAEA. All three SLGDWGAEA-specific T cell cultures comprise more than 97% CD8+ T cells that stained for more than 99% positive with SLGDVGAEA-loaded HLA-A*02:01 tetramers (indicated by HLA-A*02:01: SLGDWGAEA™ in FIG. 1). These SLGDWGAEA-specific T cells were used in subsequent experiments described below. In the present application and figures, peptide SLGDWGAEA is also referred to as ‘peptide 124’ or ‘p124’.
Buffy coats from healthy donors were obtained from Sanquin (Sanquin blood facility). Informed consent was given in writing by all participants. PBMCs were isolated using a ficoll gradient (density 1.077 g/ml). Approximately 500×10^6 PBMCs were incubated with PE-labeled pHLA-A*02:01 tetramers (Flex-T™ HLA-A*02:01 Monomer UVX van Biolegend) for 30 min at RT. Anti-PE magnetic beads (MACS) were used to pull out pHLA-A*02:01 tetramer-positive cells over a MACS LS column as instructed by the manufacturer (Miltenyi Biotech). T cells were cultured in complete IMDM containing 10% human serum (Sanquin blood facility) and 100 U/ml IL-2 (Proleukine; Novartis). […]

[5] = test system: p124-specific CD8 T cells; assay: Stimulation of p124-specific T cells by exogenous short p124 peptide; format: cell-based, human; conditions: FIG. 7
Protocol: The peptide 124-specific T-cell culture from donor 4409 was stimulated with HLA-A*0201 matched monocyte-derived dendritic cells (MoDCs) from three different donors (indicated by MoDCs 0559, MoDC 4553 and MoDC 7401), which were loaded with (10 uM for 20-24h) the indicated synthetic long peptides (SLP) (“p124 long 1” (SEQ ID NO: 22), (“p124 long 2” (SEQ ID NO: 23), (“p124 long 3” (SEQ ID NO: 24)) or with no peptide as background control. The T cell culture incubated with 25 ug/ml the p124-peptide SLGDWGAEA served as positive control for reactivity (indicated by “T cells+p124”). The amount of interferon-gamma (IFNy) or GM-CSF produced is shown on the y-axis in pg/ml.
The synthetic long peptide (SLP) platform is highly immunogenic and successfully applied in therapeutic SLP vaccination for HPV-induced cancers (Kenter et al. 2009; van Poelgeest et al. 2016). Therefore, the inventors examined the efficiency of cross-presentation of long versions of the TIMP3-derived signal peptide SLGDWGAEA (SEQ ID NO: 2) in dendritic cells, using natural flanking amino acids extending the amino-terminus, the carboxy-terminus, or both ends (Table 3). […]

Molecule: CC[C@H](C)[C@H](N)C(=O)N[C@H](C(=O)N[C@@H](CC(C)C)C(=O)N[C@@H](CC(C)C)C(=O)NCC(=O)N[C@@H](CO)C(=O)N[C@@H](Cc1c[nH]c2ccccc12)C(=O)N[C@@H](CO)C(=O)N[C@@H](CC(C)C)C(=O)NCC(=O)N[C@@H](CC(=O)O)C(=O)N[C@@H](Cc1c[nH]c2ccccc12)C(=O)NCC(=O)N[C@@H](C)C(=O)N[C@@H](CCC(=O)O)C(=O)N[C@@H](C)C(=O)N[C@@H](CS)C(=O)N[C@H](C(=O)N[C@@H](CS)C(=O)N[C@@H](CO)C(=O)N1CCC[C@H]1C(=O)N[C@@H](CO)C(=O)N[C@@H](Cc1c[nH]cn1)C(=O)O)[C@@H](C)O)C(C)C [P124 long 2] (H-IVLLGSWSLGDWGAEACTCSPSH-OH)
- T cell activation by cross-presented synthetic long peptide (wild type epitope) [1]: the T cells were activated

Molecule: CC(C)C[C@H](NC(=O)[C@@H](N)CO)C(=O)NCC(=O)N[C@@H](CC(=O)O)C(=O)N[C@@H](Cc1c[nH]c2ccccc12)C(=O)NCC(=O)N[C@@H](C)C(=O)N[C@@H](CCC(=O)O)C(=O)N[C@@H](C)C(=O)N[C@@H](CS)C(=O)N[C@H](C(=O)N[C@@H](CS)C(=O)N[C@@H](CO)C(=O)N1CCC[C@H]1C(=O)N[C@@H](CO)C(=O)N[C@@H](Cc1c[nH]cn1)C(=O)N1CCC[C@H]1C(=O)N[C@@H](CCC(N)=O)C(=O)N[C@@H](CC(=O)O)C(=O)N[C@@H](C)C(=O)N[C@@H](Cc1ccccc1)C(=O)N[C@@H](CS)C(=O)N[C@@H](CC(N)=O)C(=O)O)[C@@H](C)O [P124 long 3] (H-SLGDWGAEACTCSPSHPQDAFCN-OH)
- T cell activation by cross-presented synthetic long peptide (wild type epitope) [1]: No recognition was observed

Molecule: CC[C@H](C)[C@H](N)C(=O)N[C@H](C(=O)N[C@@H](CC(C)C)C(=O)N[C@@H](CC(C)C)C(=O)NCC(=O)N[C@@H](CO)C(=O)N[C@@H](Cc1c[nH]c2ccccc12)C(=O)N[C@@H](CO)C(=O)N[C@@H](CC(C)C)C(=O)NCC(=O)N[C@@H](CC(=O)O)C(=O)N[C@@H](Cc1c[nH]c2ccccc12)C(=O)NCC(=O)N[C@@H](C)C(=O)N[C@@H](CCC(=O)O)C(=O)N[C@H](C(=O)N[C@@H](CS)C(=O)N[C@H](C(=O)N[C@@H](CS)C(=O)N[C@@H](CO)C(=O)N1CCC[C@H]1C(=O)N[C@@H](CO)C(=O)N[C@@H](Cc1c[nH]cn1)C(=O)O)[C@@H](C)O)C(C)C)C(C)C [P124 long V2] (H-IVLLGSWSLGDWGAEVCTCSPSH-OH)
- cross-presentation of synthetic long peptide (V-variant epitope) [1]: cross-presentation was lost

Molecule: FLGPWPAAS [peptide 105, FLGPWPAAS, reference compound]
- recognition pattern of the stimulated T cell culture (classified as TEIPP) (TAP-negative tumor cells): consistent recognition pattern

Molecule: LGLIVLLGSWSLGDWGAEV [P124 long V1-4, LGLIVLLGSWSLGDWGAEV]
- cross-presentation of synthetic long peptide (V-variant epitope) [1]: enhanced T cell stimulation and more efficient cross-presentation

Molecule: LIVLLGSWSLGDWGAEV [P124 long V1-6, LIVLLGSWSLGDWGAEV]
- cross-presentation of synthetic long peptide (V-variant epitope) [1]: enhanced T cell stimulation and more efficient cross-presentation

Molecule: MTPWLGLIVLLGSWSLGDWGAEA [P124 long 1]
- T cell activation by cross-presented synthetic long peptide (wild type epitope) [1]: the T cells were activated

Molecule: SLGDWGAEA [SLGDWGAEA]
- Recognition (IC50) ([2]; Table 1): 0.092525 µg/mL
- Recognition (IC50) ([2]; Table 4): 0.092525 µg/mL
- donors with outgrowth of p124-specific T cells [3]: 10 donors
- recognition pattern of the stimulated T cell culture (classified as TEIPP) (TAP-negative tumor cells): consistent recognition pattern
- CD8+ T cells stained positive with SLGDWGAEA-loaded HLA-A*02:01 tetramers [4]: more than 99%
- CD8+ T cells stained positive with SLGDWGAEA-loaded HLA-A*02:01 tetramers ([4]; listed as peptide 124): > 99%
- T cell stimulation by exogenous pulsing of short peptide [5]: stimulated the T cells

Molecule: SLGDWGAEI [SLGDWGAEI]
- Recognition (IC50) ([2]; Table 1): 0.284929 µg/mL
- Recognition (IC50) ([2]; Table 4): 0.284929 µg/mL

Molecule: SLGDWGAEL [SLGDWGAEL]
- response of peptide 124-specific CD8+ T cell culture to variant peptide [2]: No response was observed

Molecule: SLGDWGAEM [SLGDWGAEM]
- response of peptide 124-specific CD8+ T cell culture to variant peptide [2]: No response was observed

Molecule: SLGDWGAEV [SLGDWGAEV]
- Recognition (IC50) ([2]; Table 1): 0.001471 µg/mL
- Recognition (IC50) ([2]; Table 4): 0.001471 µg/mL
- improvement of the stimulation of p124-specific T cells vs. c-terminal alanine peptide ([2]; specifically at the lower peptide concentration range): 61 fold

Molecule: WLGLIVLLGSWSLGDWGAEV [P124 long V1-3]
- cross-presentation of synthetic long peptide (V-variant epitope) [1]: less optimal
